Results taken from PubChem BioAssay AID330 (DTP/NCI, 2004).
Where “and” joins values, the source holds several entries; their conditions need not be identical. Equal entries are not always repeated. Toxic doses and inconclusive results are not listed.

System: P388 leukemia ip, CD2F1 mice, survival T/C
Assay: NCI In Vivo Anticancer Drug Screen. Data for tumor model P388 Leukemia (intraperitoneal) in CD2F1 (CDF1) mice
Conditions: endpoint: median survival time, higher = longer survival
How it was run: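 Mice carrying the transplanted tumor received test compound or vehicle. Survival was recorded in each group, and the value is the treated-group measurement divided by that of the vehicle-treated control group.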

[1] = dose: 50.0 mg/kg/injection, schedule: Q01DX005 (ip), vehicle: saline with Tween-80
[2] = dose: 100.0 mg/kg/injection, schedule: Q01DX005 (ip), vehicle: saline with Tween-80
[3] = dose: 200.0 mg/kg/injection, schedule: Q01DX005 (ip), vehicle: saline with Tween-80
[4] = dose: 25.0 mg/kg/injection, schedule: Q01DX005 (ip), vehicle: Klucel (hydroxypropylcellulose) (HPC)
[5] = dose: 50.0 mg/kg/injection, schedule: Q01DX005 (ip), vehicle: Klucel (hydroxypropylcellulose) (HPC)
[6] = dose: 100.0 mg/kg/injection, schedule: Q01DX005 (ip), vehicle: Klucel (hydroxypropylcellulose) (HPC)
[7] = dose: 200.0 mg/kg/injection, schedule: Q01DX005 (ip), vehicle: Klucel (hydroxypropylcellulose) (HPC)
[8] = dose: 50.0 mg/kg/injection, schedule: Q01DX009 (ip), vehicle: saline
[9] = dose: 100.0 mg/kg/injection, schedule: Q01DX009 (ip), vehicle: saline with Tween-80
[10] = dose: 200.0 mg/kg/injection, schedule: Q01DX009 (ip), vehicle: saline with Tween-80

Cn1c(=O)c2c(nc(/N=C/c3cccc([N+](=O)[O-])c3)n2C)n(C)c1=O
T/C (dose: 100.0 mg/kg/injection, schedule: Q04DX003 (ip), vehicle: saline): 100 % of control | T/C (dose: 200.0 mg/kg/injection, schedule: Q04DX003 (ip), vehicle: saline): 94 % of control | T/C (dose: 400.0 mg/kg/injection, schedule: Q04DX003 (ip), vehicle: saline): 86 % of control

c1cnc(NC(Nc2cnccn2)C2CCCCC2)cn1
T/C (dose: 60.0 mg/kg/injection, schedule: Q01DX005 (ip), vehicle: Klucel (hydroxypropylcellulose) (HPC)): 96 % of control | T/C (dose: 120.0 mg/kg/injection, schedule: Q01DX005 (ip), vehicle: Klucel (hydroxypropylcellulose) (HPC)): 100 % of control | T/C (dose: 240.0 mg/kg/injection, schedule: Q01DX005 (ip), vehicle: Klucel (hydroxypropylcellulose) (HPC)): 107 % of control

CN(C)[C@@H]1C(=O)C(C(=O)NCN2CCCCC2)=C(O)[C@@]2(O)C(=O)C3=C(O)c4c(O)cccc4[C@@](C)(O)[C@H]3C[C@@H]12
T/C [1]: 95 % of control | T/C [2]: 95 % of control | T/C [3]: 104 % of control

CC(=O)Nc1cc2cccnc2sc1=O
T/C [4]: 98 % of control | T/C [5]: 91 % of control | T/C [6]: 89 % of control and 94 % of control | T/C [7]: 96 % of control

COCCC(=NC(C)(C)C)Nc1ccccc1Cl
T/C [8]: 114 % of control | T/C (dose: 100.0 mg/kg/injection, schedule: Q01DX009 (ip), vehicle: saline): 113 % of control | T/C (dose: 200.0 mg/kg/injection, schedule: Q01DX009 (ip), vehicle: saline): 102 % of control

Cc1cc(N/N=C/c2c(C)n(C)n(-c3ccccc3)c2=O)c2cc3c(cc2n1)OCO3
T/C (dose: 6.25 mg/kg/injection, schedule: Q01DX005 (ip), vehicle: Klucel (hydroxypropylcellulose) (HPC)): 103 % of control | T/C (dose: 12.5 mg/kg/injection, schedule: Q01DX005 (ip), vehicle: Klucel (hydroxypropylcellulose) (HPC)): 113 % of control | T/C [4]: 108 % of control

Cc1cc(NCCN(C(C)C)C(C)C)nc(/N=C(\N)Nc2ccc(Cl)c(C(F)(F)F)c2)n1
T/C (dose: 10.0 mg/kg/injection, schedule: Q04DX003 (ip), vehicle: Klucel (hydroxypropylcellulose) (HPC)): 107 % of control and 123 % of control | T/C (dose: 20.0 mg/kg/injection, schedule: Q04DX003 (ip), vehicle: Klucel (hydroxypropylcellulose) (HPC)): 123 % of control

CC1(C)CC([N+](C)(C)CCCCCC[N+](C)(C)C2CC(C)(C)N(O)C(C)(C)C2)CC(C)(C)N1O
T/C (dose: 12.5 mg/kg/injection, schedule: Q04DX003 (ip), vehicle: saline): 105 % of control | T/C (dose: 25.0 mg/kg/injection, schedule: Q04DX003 (ip), vehicle: saline): 100 % of control | T/C (dose: 50.0 mg/kg/injection, schedule: Q04DX003 (ip), vehicle: saline): 103 % of control and 108 % of control

CC(=O)n1c2ccccc2c2c(C)c3cnccc3c(C)c21
T/C (dose: 12.5 mg/kg/injection, schedule: Q04DX002 (ip), vehicle: saline with Tween-80): 114 % of control | T/C (dose: 25.0 mg/kg/injection, schedule: Q04DX002 (ip), vehicle: saline with Tween-80): 124 % of control | T/C (dose: 50.0 mg/kg/injection, schedule: Q04DX002 (ip), vehicle: saline with Tween-80): 152 % of control | T/C (dose: 100.0 mg/kg/injection, schedule: Q04DX002 (ip), vehicle: saline with Tween-80): 171 % of control | T/C (dose: 200.0 mg/kg/injection, schedule: Q04DX002 (ip), vehicle: saline with Tween-80): 196 % of control

O=C1OC(c2ccccc2Br)=N/C1=C/c1ccccc1
T/C [5]: 99 % of control | T/C [6]: 91 % of control | T/C [7]: 98 % of control

C=C(C)[C@@H]1CC[C@@H]2C(=CC[C@]3(C)C([C@H](C)CC/C=C(/C)C(=O)O)CC[C@@]23C)[C@@]1(C)CCC(=O)O (stereo partly drawn)
T/C (dose: 1.41 mg/kg/injection, schedule: Q01DX009 (ip), vehicle: saline + alcohol): 88 % of control | T/C (dose: 2.81 mg/kg/injection, schedule: Q01DX009 (ip), vehicle: saline + alcohol): 93 % of control | T/C (dose: 5.63 mg/kg/injection, schedule: Q01DX009 (ip), vehicle: saline + alcohol): 99 % of control | T/C (dose: 11.25 mg/kg/injection, schedule: Q01DX009 (ip), vehicle: saline + alcohol): 99 % of control | T/C (dose: 90.0 mg/kg/injection, schedule: Q01DX009 (ip), vehicle: saline + alcohol): 102 % of control

O=C(NCc1ccccc1)c1ccc(Cl)c(Cl)c1
T/C (dose: 25.0 mg/kg/injection, schedule: Q04DX003 (ip), vehicle: saline with Tween-80): 101 % of control | T/C (dose: 50.0 mg/kg/injection, schedule: Q04DX003 (ip), vehicle: saline with Tween-80): 104 % of control | T/C (dose: 100.0 mg/kg/injection, schedule: Q04DX003 (ip), vehicle: saline with Tween-80): 90 % of control | T/C (dose: 200.0 mg/kg/injection, schedule: Q04DX003 (ip), vehicle: saline with Tween-80): 95 % of control

CNC1CC2OC(C)(C1OC)n1c3ccccc3c3c4c(c5c6ccccc6n2c5c31)C(=O)NC4 (stereo not drawn)
T/C (dose: 0.75 mg/kg/injection, schedule: Q01DX005 (ip), vehicle: water): 120 % of control | T/C (dose: 1.5 mg/kg/injection, schedule: Q01DX005 (ip), vehicle: water): 90 % of control

C#CC(CC)(CC)N=Cc1cc(Cl)cc(Cl)c1O
T/C (dose: 50.0 mg/kg/injection, schedule: Q01DX009 (ip), vehicle: saline with Tween-80): 98 % of control | T/C [9]: 94 % of control | T/C [10]: 96 % of control

CC(=O)C(C[n+]1ccccc1)c1ccccc1 (stereo not drawn)
T/C (dose: 15.0 mg/kg/injection, schedule: Q01DX005 (ip), vehicle: saline): 98 % of control | T/C (dose: 30.0 mg/kg/injection, schedule: Q01DX005 (ip), vehicle: saline): 98 % of control | T/C (dose: 60.0 mg/kg/injection, schedule: Q01DX005 (ip), vehicle: saline): 102 % of control and 107 % of control

O=C(NNc1ncccn1)c1ccc(C(=O)NNc2ncccn2)cc1
T/C (dose: 7.5 mg/kg/injection, schedule: Q01DX005 (ip), vehicle: saline with Tween-80): 94 % of control | T/C (dose: 15.0 mg/kg/injection, schedule: Q01DX005 (ip), vehicle: saline with Tween-80): 93 % of control

O=C1C(S(=O)(=O)O)=CC(=Nc2ccc(O)cc2)c2ccccc21
T/C [1]: 95 % of control | T/C [2]: 107 % of control | T/C [3]: 102 % of control

COc1cc(C(=O)c2cc3c(cc2C=O)OCO3)cc(OC)c1OC
T/C [5]: 95 % of control | T/C [6]: 90 % of control | T/C [7]: 99 % of control

COC(=O)c1cc(Cl)ccc1NCC(N)c1ccccc1 (stereo not drawn)
T/C (dose: 30.0 mg/kg/injection, schedule: Q01DX005 (ip), vehicle: saline with Tween-80): 99 % of control | T/C (dose: 60.0 mg/kg/injection, schedule: Q01DX005 (ip), vehicle: saline with Tween-80): 101 % of control and 97 % of control

CCCCCCCCCCCc1n(Cc2ccccc2)c2ccccc2[n+]1C
T/C (dose: 0.25 mg/kg/injection, schedule: Q01DX009 (ip), vehicle: saline sonified): 104 % of control | T/C (dose: 0.5 mg/kg/injection, schedule: Q01DX009 (ip), vehicle: saline sonified): 109 % of control

CC(C)CNN(CC(C)C)C(N)=O
T/C [9]: 102 % of control | T/C [10]: 105 % of control

CCN(CC)Cc1cc(Nc2cc(Cl)c3ccc(N(C)C)cc3n2)ccc1O
T/C (dose: 12.5 mg/kg/injection, schedule: Q01DX009 (ip), vehicle: saline): 110 % of control | T/C (dose: 25.0 mg/kg/injection, schedule: Q01DX009 (ip), vehicle: saline): 110 % of control | T/C [8]: 109 % of control and 110 % of control

COC(=O)c1ccccc1OC(C)=O
T/C (dose: 25.0 mg/kg/injection, schedule: Q01DX009 (ip), vehicle: suspension in saline): 99 % of control | T/C (dose: 50.0 mg/kg/injection, schedule: Q01DX009 (ip), vehicle: suspension in saline): 99 % of control | T/C (dose: 100.0 mg/kg/injection, schedule: Q01DX009 (ip), vehicle: suspension in saline): 96 % of control | T/C (dose: 200.0 mg/kg/injection, schedule: Q01DX009 (ip), vehicle: suspension in saline): 100 % of control

Cc1c2ccccc2c(CSC(=N)N)c2ccccc12
T/C (dose: 0.44 mg/kg/injection, schedule: Q01DX009 (ip), vehicle: saline): 110 % of control | T/C (dose: 0.66 mg/kg/injection, schedule: Q01DX009 (ip), vehicle: saline): 110 % of control | T/C (dose: 1.0 mg/kg/injection, schedule: Q01DX009 (ip), vehicle: saline): 110 % of control | T/C (dose: 1.47 mg/kg/injection, schedule: Q01DX009 (ip), vehicle: saline): 160 % of control | T/C (dose: 1.5 mg/kg/injection, schedule: Q01DX009 (ip), vehicle: saline): 105 % of control and 120 % of control | T/C (dose: 2.2 mg/kg/injection, schedule: Q01DX009 (ip), vehicle: saline): 160 % of control | T/C (dose: 3.3 mg/kg/injection, schedule: Q01DX009 (ip), vehicle: saline): 165 % of control | T/C (dose: 5.0 mg/kg/injection, schedule: Q01DX009 (ip), vehicle: saline): 150 % of control and 185 % of control
